For assay [1], the target named is T1, Human ALDH1A1 (Homo sapiens, UniProt P00352).
T1 construct: made in house
T1 sequence (P00352 1-501): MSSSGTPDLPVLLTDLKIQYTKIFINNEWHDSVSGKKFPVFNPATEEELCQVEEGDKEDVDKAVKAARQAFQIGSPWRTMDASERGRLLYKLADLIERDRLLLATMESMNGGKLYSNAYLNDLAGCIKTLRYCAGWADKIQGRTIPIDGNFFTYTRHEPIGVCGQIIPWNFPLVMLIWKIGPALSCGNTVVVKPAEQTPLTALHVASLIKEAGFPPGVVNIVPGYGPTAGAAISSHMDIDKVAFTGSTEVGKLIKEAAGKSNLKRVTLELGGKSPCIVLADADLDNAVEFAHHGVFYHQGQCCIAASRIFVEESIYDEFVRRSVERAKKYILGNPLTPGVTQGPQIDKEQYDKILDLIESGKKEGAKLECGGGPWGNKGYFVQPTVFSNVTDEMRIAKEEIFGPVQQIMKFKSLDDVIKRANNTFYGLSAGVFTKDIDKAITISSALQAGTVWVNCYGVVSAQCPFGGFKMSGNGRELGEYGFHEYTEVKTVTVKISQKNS
Briefly: DEAB analogues as substrates of ALDH1A1. The settings on record: 10 μM compound as substrate, relative to activity with 10 μM hexanal (Figure S2). Format: biochemical. The procedure:
(§1) Human ALDH1A1, ALDH1A3, and ALDH3A1 were cloned and recombinantly expressed from the pET-30 Xa/LIC vector. Protein purification was achieved by affinity chromatography on a nickel-charged chelating Sepharose Fast Flow 5-mL column (His Trap column, Cytiva), which specifically binds the protein due to its N-terminal (His)6 tag, using an ÄKTA FPLC system (Cytiva), as previously described.[55] Enzymes including the His tag were stored at −80 °C in 20 mM Tris/HCl and 0.5 M NaCl, pH 8.0, until use. Reaction buffers were as follows: ALDH1A1 was assayed in 50 mM HEPES, 0.5 mM EDTA, and 0.5 mM DTT, pH 8.0; ALDH1A3 was assayed in 50 mM HEPES, 30 mM MgCl2, and 5 mM DTT, pH 8.0; and ALDH3A1 was assayed in 50 mM Tris–HCl and 5 mM DTT, pH 8.0. Activity under standard conditions was measured fluorimetrically at 25 °C using a Cary Eclipse (Varian) fluorimeter to follow the purification procedure and to check the enzyme concentration before each kinetic experiment. The fluorescence of NADH was characterized at 460 nm with excitation at 340 nm, and 5 μM NAD(P)H was added as an internal standard to obtain the absolute reaction rates.[55] Standard activity was measured at saturating concentrations of substrate using 30 μM hexanal (ALDH1A1), 250 μM hexanal (ALDH1A3), or 250 μM 4-NBA (ALDH3A1). NAD^+ was 500 μM for ALDH1A1 and ALDH1A3, and NADP^+ was 1 mM for ALDH3A1.
According to their structure with a carbonyl group, compounds were tested for their substrate properties against ALDH1A1, ALDH1A3, and ALDH3A1. […] Results are expressed as the percentage of activity at 10 μM versus the activity at 10 μM of their standard substrate (hexanal or 4-NBA). Values are expressed as the mean ± SE.

The test system of a further assay is LNCaP. Briefly: MTT chemosensitivity assay, LNCaP. The settings on record: Homo sapiens, LNCaP, 96 h exposure, ± SD, at least three independent experiments. Format: cell-based, human. A general note: Formazan colour is commonly taken as a measure of viable cells.
Assay [2] has as its target T1, Human ALDH1A1. The assay is described as follows: ALDH1A1 inhibition, IC50 determination. Format: biochemical. The method, then: as §1
In order to determine the IC50 values, reaction rates were determined at various concentrations of inhibitor at a fixed concentration of substrate. As substrates for ALDH1A1, ALDH1A3, and ALDH3A1, 5 μM hexanal, 6 μM hexanal, and 31 μM 4-NBA, respectively, were used. The IC50 values were calculated by nonlinear fitting of the obtained data to a sigmoidal plot using GraFit 5.0 (Erithacus software), with the following 4-parameter equation [drawing 2] , where y is the specific activity, x is the inhibitor concentration, background is the minimum y value, range is the fitted uninhibited value minus the background, and s is the slope factor. Values are expressed as the mean ± SE.

For assay [3], the target named is T1, Human ALDH1A1. Briefly: Inhibition screening, single point at 10 μM, ALDH1A1. The settings on record: 10 μM compound; 5 μM hexanal (Figure S1). In kind it is biochemical. The method, then:
as §1
All compounds tested were dissolved in DMSO and assayed at a final concentration of 1% (v/v) DMSO. […] For the initial screening, the enzymatic activity was measured in 96-well plates (final volume of 200 μL) in a Victor 3 Multilabel Plate Reader (Perkin Elmer), by monitoring the fluorescence of the NAD(P)H produced during the reaction (excitation at 340 nm and emission at 460 nm). Alternatively, the enzymatic activity was measured in a Varian Cary 400 UV–vis spectrophotometer, by monitoring the increase in the absorbance of NAD(P)H at 340 nm (ε = 6.22 mM^–1·cm^–1) or in a Cary Eclipse Varian fluorimeter, as described above. […] For ALDH1A1, 5 μM hexanal (Sigma) was used. For ALDH1A3, 10 and 250 μM hexanal (Sigma) were used. For ALDH3A1, 4-NBA (Sigma) was used at 31 and 250 μM. All substrates were prepared in the corresponding assay buffer at a concentration of 2 mM and further diluted to reach the final concentrations required per experiment. The concentration of the enzyme was kept from 50- to 100-fold lower than that of the substrate for all enzymatic assays.

For `CCCN(CCC)c1ccc(C=O)cc1[N+](=O)[O-]` [Compound 18, 4-(Dipropylamino)-3-Nitrobenzaldehyde], the ALDH1A1 substrate activity at Human ALDH1A1 [1] was 17%. Also, it took 31 ± 6 µM to reach half-maximal inhibition in the assay on LNCaP (IC50).

Regarding `CCCN(CCC)c1ccc(C=O)cc1Br` [Compound 14, 3-Bromo-4-(dipropylamino)benzaldehyde], the IC50 – broadly, the midpoint of a concentration-inhibition curve – at Human ALDH1A1 [2] (5 μM hexanal as substrate, mean ± SE) came to 7.08 ± 0.7 µM; in the assay on LNCaP it was 25 ± 1 µM. For the same compound, the “fold less effective than DEAB in inhibiting ALDH1A1” value on Human ALDH1A1 [2] (ratio of IC50 values vs DEAB) was “approximately 15 fold”. Moreover, the “remaining ALDH1A1 activity” value on Human ALDH1A1 [3] was found to be 45%.
